Like-named read-outs stand apart in the source and are kept apart here.
Tests used:
Type in all cases: cell-based
[1] = target: T1, human PPARγ (182–505aa) ligand binding domain (Homo sapiens, UniProt P37231); experiment: PPAR transfection (Gal4-LBD luciferase reporter) assay, hPPARγ; conditions: read-out: hPPAR, EC50 γ (agonist activity)
T1 construct: γ(182–505aa); expressed in transfected cells; host or cells: COS-7
T1 sequence (P37231 182-505): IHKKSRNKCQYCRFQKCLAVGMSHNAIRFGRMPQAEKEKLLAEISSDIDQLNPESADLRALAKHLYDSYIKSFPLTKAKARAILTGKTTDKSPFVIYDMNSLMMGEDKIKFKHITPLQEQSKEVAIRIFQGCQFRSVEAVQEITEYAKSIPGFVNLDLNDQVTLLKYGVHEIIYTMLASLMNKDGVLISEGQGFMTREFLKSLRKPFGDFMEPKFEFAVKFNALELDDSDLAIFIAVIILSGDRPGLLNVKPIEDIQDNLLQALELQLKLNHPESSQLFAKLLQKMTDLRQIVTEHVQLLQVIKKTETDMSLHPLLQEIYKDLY
Experimental: (§1) COS-7 cells, which is African green monkey kidney cell line, were used for all transfection assays. Cells were cultured in DMEM medium supplemented with 10% fetal bovine serum, glutamic acid, and an antibiotic under humidified 5% CO2 atmosphere.
(§2) Cells were transfected by lipofectamine reagent with a mixture containing expression plasmid, firefly luciferase reporter plasmid. And a β-galactosidase expression plasmid used as an internal control for transfection efficiency.
(§3) Transiently transfected cells were incubated with DMEM with 0.2% FCS with or without compound. And after 16 hours, luciferase activity and β-galactosidase activity of cell lysate were measured.
(§4) Each compound was dissolved in and diluted with dimethyl sulfoxide (DMSO), and the DMSO concentration of the DMEM medium (containing 0.2% serum) was adjusted to 0.1% upon treatment of cells.

[2] = target: T2, human PPARα (166–467aa) ligand binding domain (Homo sapiens, UniProt Q07869); experiment: PPAR transfection (Gal4-LBD luciferase reporter) assay, hPPARα; conditions: read-out: hPPAR, EC50 α (agonist activity)
T2 construct: human PPARα (166–467aa); expressed in transfected cells; host or cells: COS-7
T2 sequence (Q07869 166-467): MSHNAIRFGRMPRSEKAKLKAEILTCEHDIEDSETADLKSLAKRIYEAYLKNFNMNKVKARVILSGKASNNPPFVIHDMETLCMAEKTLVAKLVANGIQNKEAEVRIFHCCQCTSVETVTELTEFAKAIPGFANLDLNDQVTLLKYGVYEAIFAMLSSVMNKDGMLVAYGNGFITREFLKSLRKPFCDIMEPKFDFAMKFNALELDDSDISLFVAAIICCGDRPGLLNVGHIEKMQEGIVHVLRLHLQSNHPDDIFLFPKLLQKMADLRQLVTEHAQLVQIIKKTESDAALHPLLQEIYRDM
Experimental: as §1, §2, §3, §4

[3] = target: T3, human PPARδ (137–441aa) ligand binding domain (Homo sapiens, UniProt Q03181); experiment: PPAR transfection (Gal4-LBD luciferase reporter) assay, hPPARδ; conditions: read-out: hPPAR, EC50 δ (agonist activity)
T3 construct: δ (137–441aa); expressed in transfected cells; host or cells: COS-7
T3 sequence (Q03181 137-441): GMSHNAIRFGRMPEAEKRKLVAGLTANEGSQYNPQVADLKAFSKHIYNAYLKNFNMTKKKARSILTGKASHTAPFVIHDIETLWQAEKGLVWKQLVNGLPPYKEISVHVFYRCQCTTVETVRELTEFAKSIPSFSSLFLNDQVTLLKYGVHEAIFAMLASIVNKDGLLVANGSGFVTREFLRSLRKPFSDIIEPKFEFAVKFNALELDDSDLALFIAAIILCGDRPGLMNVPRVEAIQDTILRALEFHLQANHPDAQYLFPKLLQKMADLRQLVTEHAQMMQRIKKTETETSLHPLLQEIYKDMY
Experimental: as §1, §2, §3, §4

[4] = transfected COS-7 cells, 16 hours, luciferase activity

SMILES	EC50 [1, 4]	EC50 [2, 4]	EC50 [3, 4]	EC50 [1]	EC50 [2]	EC50 [3]
CCC(Oc1cccc(CCN(CCCOc2ccccc2)c2nc3cc(F)ccc3o2)c1)C(=O)O (stereo not drawn) [Example 39, 2-[3-[2-[N-(5-Fluorobenzoxazol-2-yl)-N-3-phenoxypropyl]aminoethyl]phenoxy]butyric acid]	9100 nM	80 nM	1600 nM			
CCC(Oc1cccc(CCN(CCOc2ccccc2)c2nc3ccccc3o2)c1)C(=O)O (stereo not drawn) [Example 41, 2-[3-[2-[N-(Benzoxazol-2-yl)-N-2-phenoxyethyl]aminoethyl]phenoxy]butyric acid]	2000 nM	40 nM	> 50000 nM			
CC(Oc1cccc(CCN(CCOc2ccccc2)c2nc3cc(F)ccc3o2)c1)C(=O)O (stereo not drawn) [Example 43, 2-[3-[2-[N-(5-Fluorobenzoxazol-2-yl)-N-2-phenoxyethyl]aminoethyl]phenoxy]propionic acid]	> 100000 nM	70 nM	5300 nM			
COc1ccc2oc(N(CCOc3ccccc3)CCc3cccc(OC(C)C(=O)O)c3)nc2c1 (stereo not drawn) [Example 44, 2-[3-[2-[N-(5-Methoxybenzoxazol-2-yl)-N-2-phenoxyethyl]aminoethyl]phenoxy]propionic acid]	> 100000 nM	80 nM	1600 nM			
CCC(Oc1cccc(CCN(CCOc2ccc(OC)cc2)c2nc3ccccc3o2)c1)C(=O)O (stereo not drawn) [Example 45, 2-[3-[2-[N-(Benzoxazol-2-yl)-N-2-(4-methoxyphenoxy)ethyl]aminoethyl]phenoxy]butyric acid]	6300 nM	10 nM	1800 nM			
CCC(Oc1cccc(CCN(CCOc2ccc(OC)cc2)c2nc3cc(F)ccc3o2)c1)C(=O)O (stereo not drawn) [Example 46, 2-[3-[2-[N-(5-Fluorobenzoxazol-2-yl)-N-2-(4-methoxyphenoxy)ethyl]aminoethyl]phenoxy]butyric acid]	> 100000 nM	10 nM	1800 nM			
CCC(Oc1cccc(CCN(CCOc2ccc(OC)cc2)c2nc3cc(Cl)ccc3o2)c1)C(=O)O (stereo not drawn) [Example 47, 2-[3-[2-[N-(5-Chlorobenzoxazol-2-yl)-N-2-(4-methoxyphenoxy)ethyl]aminoethyl]phenoxy]butyric acid]	> 50000 nM	40 nM	1500 nM			
CCC(Oc1cccc(CCN(CCOc2ccc(OC)cc2)c2nc3cc(OC)ccc3o2)c1)C(=O)O (stereo not drawn) [Example 48, 2-[3-[2-[N-(5-Methoxybenzoxazol-2-yl)-N-2-(4-methoxyphenoxy)ethyl]aminoethyl]phenoxy]butyric acid]	5200 nM	80 nM	2000 nM			
CCC(Oc1cccc(CCN(CCCOc2ccc(OC)cc2)c2nc3cc(F)ccc3o2)c1)C(=O)O (stereo not drawn) [Example 49, 2-[3-[2-[N-(5-Fluorobenzoxazol-2-yl)-N-3-(4-methoxyphenoxy)propyl]aminoethyl]phenoxy]butyric acid]	1500 nM	20 nM	1500 nM			
CCC(Oc1cccc(CCN(CCCOc2ccc(F)cc2)c2nc3ccccc3o2)c1)C(=O)O (stereo not drawn) [Example 50, 2-[3-[2-[N-(Benzoxazol-2-yl)-N-3-(4-fluorophenoxy)propyl]aminoethyl]phenoxy]butyric acid]	2600 nM	40 nM	1400 nM			
CCC(Oc1cccc(CCN(CCCOc2ccc(F)cc2)c2nc3cc(OC)ccc3o2)c1)C(=O)O (stereo not drawn) [Example 51, 2-[3-[2-[N-3-(4-Fluorophenoxy)propyl-N-(5-methoxybenzoxazol-2-yl)]aminoethyl]phenoxy]butyric acid]	3800 nM	30 nM	1400 nM			
CCC(Oc1cccc(CCN(CCCOc2ccc(Cl)cc2)c2nc3cc(OC)ccc3o2)c1)C(=O)O (stereo not drawn) [Example 52, 2-[3-[2-[N-3-(4-Chlorophenoxy)propyl-N-(5-methoxybenzoxazol-2-yl)]aminoethyl]phenoxy]butyric acid]	2000 nM	10 nM	400 nM			
CCC(Oc1cccc(CCN(CCCOc2ccc(Cl)cc2)c2nc3ccccc3o2)c1)C(=O)O (stereo not drawn) [Example 53, 2-[3-[2-[N-(Benzoxazol-2-yl)-N-3-(4-chlorophenoxy)propyl]aminoethyl]phenoxy]butyric acid]	3900 nM	60 nM	1900 nM			
CC(C)(Oc1cccc(CCN(CCOc2ccccc2)c2nc3ccccc3o2)c1)C(=O)O [Example 78, 2-[3-[2-[N-(Benzoxazol-2-yl)-N-2-phenoxyethyl]aminoethyl]phenoxy]-2-methylpropionic acid]	1100 nM	30 nM	> 100000 nM			
COc1ccc(OCCCN(Cc2cccc(O[C@H](C)C(=O)O)c2)c2nc3ccccc3o2)cc1 [Example 82, (R)-2-[3-[[N-(Benzoxazol-2-yl)-N-3-(4-methoxyphenoxy)propyl]aminomethyl]phenoxy]propionic acid]	1200 nM	2 nM	2500 nM			
CC[C@@H](Oc1cccc(CN(CCCOc2ccccc2)c2nc3ccccc3o2)c1)C(=O)O [Example 83, (R)-2-[[3-[N-(Benzoxazol-2-yl)-N-3-phenoxypropyl]aminomethyl]phenoxy]butyric acid]	910 nM	2 nM	1600 nM			
CC[C@@H](Oc1cccc(CN(CCCOc2ccc(F)cc2)c2nc3ccccc3o2)c1)C(=O)O [Example 87, (R)-2-[[3-[N-(Benzoxazol-2-yl)-N-3-(4-fluorophenoxy)propyl]aminomethyl]phenoxy]butyric acid]	940 nM	3 nM	1200 nM			
C[C@@H](Oc1cccc(CN(CCCOc2ccccc2)c2nc3ccccc3o2)c1)C(=O)O [Example 88, (R)-2-[[3-[N-(Benzoxazol-2-yl)-N-3-phenoxypropyl]aminomethyl]phenoxy]propionic acid]	2900 nM	11 nM	3700 nM			

The remaining lines, values ahead:

EC50 [1, 4]	EC50 [2, 4]	EC50 [3, 4]	EC50 [1]	EC50 [2]	EC50 [3]	SMILES
> 10000 nM	9 nM	5100 nM				CC(Oc1cccc(CN(CCCC(=O)c2ccccc2)c2nc3ccccc3o2)c1)C(=O)O (stereo not drawn) [Example 93, 2-[3-[[N-(Benzoxazol-2-yl)-N-(4-oxo-4-phenylbutyl)]aminomethyl]phenoxy]propionic acid]
1100 nM	1 nM	1200 nM				COc1ccc(OCCCN(Cc2cccc(OC(C)C(=O)O)c2)c2nc3ccccc3s2)cc1 (stereo not drawn) [Example 96]
			1000 nM	3 nM	1100 nM	CCC(Oc1cccc(CN(CCCOc2ccccc2)c2nc3cc(F)ccc3o2)c1)C(=O)O (stereo not drawn) [Example 132]
1300 nM	7 nM	1800 nM				CCC(Oc1cccc(CN(CCCOc2ccc(F)cc2)c2nc3ccc(F)cc3o2)c1)C(=O)O (stereo not drawn) [Example 140]
200 nM	1 nM	100 nM				CCC(Oc1cccc(CN(CCCOc2ccc(C)cc2)c2nc3ccccc3o2)c1)C(=O)O (stereo not drawn) [Example 146]
2500 nM	3 nM	1400 nM				Cc1ccc2oc(N(CCCOc3ccc(F)cc3)Cc3cccc(OC(C)C(=O)O)c3)nc2c1 (stereo not drawn) [Example 153]
> 10000 nM	11 nM	1800 nM				Cc1ccc2oc(N(CCCOc3ccccc3)Cc3cccc(OC(C)C(=O)O)c3)nc2c1 (stereo not drawn) [Example 155]
1200 nM	4 nM	1300 nM				CC(Oc1cccc(CN(CCCOc2ccc3c(c2)OCO3)c2nc3ccccc3o2)c1)C(=O)O (stereo not drawn) [Example 157]
1600 nM	5 nM	1100 nM				CCC(Oc1cccc(CN(CCCOc2ccccc2)c2nc3cc4c(cc3o2)OCO4)c1)C(=O)O (stereo not drawn) [Example 158]
> 10000 nM	9 nM	1500 nM				CC(Oc1cccc(CN(CCCOc2ccccc2)c2nc3cc4c(cc3o2)OCO4)c1)C(=O)O (stereo not drawn) [Example 159]

— patent US7183295B2, “PPAR-activating compound and pharmaceutical composition comprising the compound” (Kowa Co., Ltd., priority 2003, dated 2007)
